Key:
[1] = In vitro cytotoxicity assay (MTT cell viability) in HepG2 cells; type: cell-based, human; conditions: human
Outline: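 Using MTT conversion as the viability measure, HepG2 cells were incubated with compounds for 7 days (30 μM to 1.0 nM). Absorbance at 492 nm was normalized to vehicle and fitted to give CC50.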

[2] = test system: HBV replication in HepAD38 cells; assay: Anti-HBV replication assay in HepAD38 cells (QPCR of extracellular HBV DNA); type: cell-based, HBV (genotype D, serotype ayw); conditions: Hepatitis B virus, 168 h, 7 days incubation, extracellular HBV DNA by QPCR, read-out: Anti-HBV EC50
Outline: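 EC50 values reflect 50% reduction of extracellular HBV DNA, measured by QPCR after 7-day treatment of tetracycline-deprived HepAD38 cells with compound […].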

Row | Structure (SMILES) | CC50 at 7 days [1] | EC50 [2]
1 | CC[C@H](CO)NC(=O)C(=O)c1c(C)c(C(=O)Nc2ccc(F)c(C)c2)c(C)n1C [Example 140, (R)-N-(4-fluoro-3-methylphenyl)-5-(2-((1-hydroxybutan-2-yl)amino)-2-oxoacetyl)-1,2,4-trimethyl-1H-pyrrole-3-carboxamide] | > 30 µM | < 50 nM
2 | Cc1cc(NC(=O)c2c(C)c(C(=O)C(=O)N[C@@H](C)CO)n(C)c2C)ccc1F [Example 217, (S)-N-(4-ffluoro-3-methylphenyl)-5-(2-((1-hydroxypropan-2-yl)amino)-2-oxoacetyl)-1,2,4-trimethyl-1H-pyrrole-3-carboxamide] | > 30 µM | < 50 nM
3 | Cc1cc(NC(=O)c2c(C)c(C(=O)C(=O)NC3CCCCC3)n(C)c2C)ccc1F [Example 262, 5-(2-(cyclohexylamino)-2-oxoacetyl)-N-(4-fluoro-3-methylphenyl)-1,2,4-trimethyl-1H-pyrrole-3-carboxamide] | 5 to 30 µM | < 50 nM
4 | Cc1cc(NC(=O)c2c(C)c(C(=O)C(=O)Nc3cccnc3)n3c2CCCC3)ccc1F [Example 739, N-(4-fluoro-3-methylphenyl)-2-methyl-3-(2-oxo-2-(pyridin-3-ylamino)acetyl)-5,6,7,8-tetrahydroindolizine-1-carboxamide] | > 30 µM | 50 to 499 nM
5 | Cc1c(C(=O)Nc2ccc(F)c(Cl)c2)c(C)n(C)c1C(=O)C(=O)NC1CCC(F)(F)CC1 [Example 314, N-(3-chloro-4-fluorophenyl)-5-(2-((4,4-difluorocyclohexyl)amino)-2-oxoacetyl)-1,2,4-trimethyl-1H-pyrrole-3-carboxamide] | 5 to 30 µM | < 50 nM
6 | Cc1noc([C@@H](C)NC(=O)C(=O)c2c(Cl)c(C(=O)Nc3ccnc(F)c3)c3n2CCCC3)n1 [Example 510, (R)-2-chloro-N-(2-fluoropyridin-4-yl)-3-(2-((1-(3-methyl-1,2,4-oxadiazol-5-yl)ethyl)amino)-2-oxoacetyl)-5,6,7,8-tetrahydroindolizine-1-carboxamide] | > 30 µM | > 1000 nM
7 | CNC(=O)[C@@H](NC(=O)C(=O)c1c(C)c(C(=O)Nc2ccc(F)c(C)c2)c(C)n1C)C1CCCC1 [Example 125, (S)-5-(2-((1-cyclopentyl-2-(methylamino)-2-oxoethyl)amino)-2-oxoacetyl)-N-(4-fluoro-3-methylphenyl)-1,2,4-trimethyl-1H-pyrrole-3-carboxamide] | 0.5 to 4.99 µM | < 50 nM
8 | Cc1cc(NC(=O)c2c(Cl)c(C(=O)C(=O)NC3(CO)CC(F)(F)C3)n3c2CCCC3)cnc1F [Example 507, 2-chloro-3-(2-((3,3-difluoro-1-(hydroxymethyl)cyclobutyl)amino)-2-oxoacetyl)-N-(6-fluoro-5-methylpyridin-3-yl)-5,6,7,8-tetrahydroindolizine-1-carboxamide] | > 30 µM | 50 to 499 nM
9 | CC(C)(CO)NC(=O)C(=O)c1c(Cl)c(C(=O)Nc2ccc(F)c(F)c2)c2n1CCCC2 [Example 492, 2-chloro-N-(3,4-difluorophenyl)-3-(2-((1-hydroxy-2-methylpropan-2-yl)amino)-2-oxoacetyl)-5,6,7,8-tetrahydroindolizine-1-carboxamide] | 5 to 30 µM | < 50 nM
10 | Cc1cc(NC(=O)c2cc(C(=O)C(=O)NC(C)(C)C)n3c2CCCC3)ccc1F [Example 393, 3-(2-(tert-butylamino)-2-oxoacetyl)-N-(4-fluoro-3-methylphenyl)-5,6,7,8-tetrahydroindolizine-1-carboxamide] | > 30 µM | 50 to 499 nM
11 | Cc1cc(NC(=O)c2cc(C(=O)C(=O)N[C@H](C)C(F)(F)F)n3c2CCCC3)ccc1F [Example 408, (R)-N-(4-fluoro-3-methylphenyl)-3-(2-oxo-2-((1,1,1-trifluoropropan-2-yl)amino)acetyl)-5,6,7,8-tetrahydroindolizine-1-carboxamide] | > 30 µM | 50 to 499 nM
12 | Cc1cc(NC(=O)c2cc(C(=O)C(=O)NC3(C)COC3)n3c2CCCC3)ccc1F [Example 405, N-(4-fluoro-3-metthylphenyl)-3-(2-((3-methyloxetan-3-yl)amino)-2-oxoacetyl)-5,6,7,8-tetrahydroindolizine-1-carboxamide] | > 30 µM | 50 to 499 nM
13 | Cc1c(C(=O)Nc2cccc(Cl)c2)c(C)n(C)c1C(=O)C(=O)N[C@]1(C)CC[C@@H](O)CC1 [Example 615, N-(3-chlorophenyl)-5-(2-(((1r,4r)-4-hydroxy-1-methylcyclohexyl)amino)-2-oxoacetyl)-1,2,4-trimethyl-1H-pyrrole-3-carboxamide] | > 30 µM | < 50 nM
14 | Cc1c(C(=O)Nc2ccc(F)c(F)c2)c2n(c1C(=O)C(=O)NCc1cnc(N)s1)CCCC2 [Example 455, 3-(2-(((2-aminothiazol-5-yl)methyl)amino)-2-oxoacetyl)-N-(3,4-difluorophenyl)-2-methyl-5,6,7,8-tetrahydroindolizine-1-carboxamide] | 5 to 30 µM | < 50 nM
15 | Cc1cc(NC(=O)c2c(C)c(C(=O)C(=O)NC3(CO)CCCCC3)n(C)c2C)ccc1F [Example 599, N-(4-fluoro-3-methylphenyl)-5-(2-((1-(hydroxymethyl)cyclohexyl)amino)-2-oxoacetyl)-1,2,4-trimethyl-1H-pyrrole-3-carboxamide] | > 30 µM | < 50 nM
16 | Cc1cc(NC(=O)c2c(C)c(C(=O)C(=O)NC3CCNCC3)n(C)c2C)ccc1F [Example 233, N-(4-fluoro-3-methylphenyl)-1,2,4-trimethyl-5-(2-oxo-2-(piperidin-4-ylamino)acetyl)-1H-pyrrole-3-carboxamide] | > 30 µM | 50 to 499 nM
17 | Cc1cc(NC(=O)c2c(C)c(C(=O)C(=O)N[C@H]3CC[C@@H](O)CC3)n(CCF)c2C)ccc1F [Example 210, N-(4-fluoro-3-methylphenyl)-1-(2-fluoroethyl)-5-(2-(((1s,4s)-4-hydroxycyclohexyl)amino)-2-oxoacetyl)-2,4-dimethyl-1H-pyrrole-3-carboxamide] | > 30 µM | < 50 nM
18 | Cc1cc(NC(=O)c2c(C)c(C(=O)C(=O)N[C@@H](C(N)=O)C3CCCCC3)n(C)c2C)ccc1F [Example 102, (R)-5-(2-((2-amino-1-cyclohexyl-2-oxoethyl)amino)-2-oxoacetyl)-N-(4-fluoro-3-methylphenyl)-1,2,4-trimethyl-1H-pyrrole-3-carboxamide] | 0.5 to 4.99 µM | < 50 nM
19 | Cc1c(C(=O)Nc2cccc(C(F)F)c2)c(C)n(C)c1C(=O)C(=O)N[C@]1(C)C[C@@H](O)C1 [Example 720, N-(3-(difluoromethyl)phenyl)-5-(2-(((1r,3r)-3-hydroxy-1-methylcycloutyl)amino)-2-oxoacetyl)-1,2,4-trimethyl-1H-pyrrole-3-carboxamide] | > 30 µM | < 50 nM
20 | Cc1c(C(=O)Nc2ccc(F)c(F)c2)c2n(c1C(=O)C(=O)NCC(C)(C)CO)CCCC2 [Example 461, N-(3,4-difluorophenyl)-3-(2-((3-hydroxy-2,2-dimethylpropyl)amino)-2-oxoacetyl)-2-methyl-5,6,7,8-tetrahydroindolizine-1-carboxamide] | 5 to 30 µM | < 50 nM
21 | Cc1cc(NC(=O)c2c(C)c(C(=O)C(=O)N[C@H]3CCOC[C@@H]3O)n(C)c2C)ccc1F [Example 187, N-(4-fluoro-3-methylphenyl)-5-(2-(((3R,4S)-3-hydroxytetrahydro-2H-pyran-4-yl)amino)-2-oxoacetyl)-1,2,4-trimethyl-1H-pyrrole-3-carboxamide] | > 30 µM | > 1000 nM
22 | Cc1c(C(=O)Nc2ccnc(F)c2)c(C)n(C)c1C(=O)C(=O)NC(C)(C)CO [Example 133, N-(2-fluoropyridin-4-yl)-5-(2-((1-hydroxy-2-methylpropan-2-yl)amino)-2-oxoacetyl)-1,2,4-trimethyl-1H-pyrrole-3-carboxamide] | > 30 µM | 50 to 499 nM
23 | Cc1cc(NC(=O)c2c(C)c(C(=O)C(=O)NC(C)(C)CO)n(CCF)c2C)cnc1F [Example 222, N-(6-fluoro-5-methylpyridin-3-yl)-1-(2-fluoroethyl)-5-(2-((1-hydroxy-2-methylpropan-2-yl)amino)-2-oxoacetyl)-2,4-dimethyl-1H-pyrrole-3-carboxamide] | > 30 µM | > 1000 nM
24 | CO[C@H]1CC[C@@H](NC(=O)C(=O)c2c(C)c(C(=O)Nc3ccnc(Cl)c3)c(C)n2C)CC1 [Example 345, N-(2-chloropyridin-4-yl)-5-(2-(((1s,4s)-4-methoxycyclohexyl)amino)-2-oxoacetyl)-1,2,4-trimethyl-1H-pyrrole-3-carboxamide] | > 30 µM | < 50 nM
25 | CC(C)(CO)CNC(=O)C(=O)c1c(Cl)c(C(=O)Nc2ccc(F)c(Cl)c2)c2n1CCCC2 [Example 527, 2-chloro-N-(3-chloro-4-fluorophenyl)-3-(2-((3-hydroxy-2,2-dimethylpropyl)amino)-2-oxoacetyl)-5,6,7,8-tetrahydroindolizine-1-carboxamide] | 0.5 to 4.99 µM | 500 to 1000 nM
26 | Cc1cc(NC(=O)c2c(C)c(C(=O)C(=O)NCCN3CCC(O)CC3)n(C)c2C)ccc1F [Example 292, N-(4-fluoro-3-methylphenyl)-5-(2-((2-(4-hydroxypiperidin-1-yl)ethyl)amino)-2-oxoacetyl)-1,2,4-trimethyl-1H-pyrrole-3-carboxamide] | > 30 µM | 50 to 499 nM
27 | CC(C)(O)CNC(=O)C(=O)c1c(Cl)c(C(=O)Nc2ccc(F)c(Cl)c2)c2n1CCC2 [Example 557, 6-chloro-N-(3-chloro-4-fluorophenyl)-5-(2-((2-hydroxy-2-methylpropyl)amino)-2-oxoacetyl)-2,3-dihydro-1H-pyrrolizine-7-carboxamide] | 5 to 30 µM | < 50 nM

— patent publication US20190375708A1 (VenatoRx Pharmaceuticals, Inc., priority 2018, published 2019)
